Assay results reported in ChEMBL document CHEMBL1201862, “PubChem BioAssay data set” (2004).
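These data come from cells grown in 96-well plates and exposed to compound for 48 hours at five concentrations. The concentration for 50% growth inhibition is given as GI50.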 The source made the active and inactive calls. Rule as the data show it: active = GI50 up to about 1.1 µM and inactive = higher.

How the values were obtained:
Assay in all cases: NCI anticancer screen, dose series, 48 h
HCT-116 = system: HCT-116
TK-10 = system: TK-10
OVCAR-3 = system: OVCAR-3
HOP-92 = system: HOP-92
MCF7 = system: MCF7
NCI-H460 = system: NCI-H460
UACC-257 = system: UACC-257
M14 = system: M14
CAKI-1 = system: CAKI-1
SK-OV-3 = system: SK-OV-3
SF-268 = system: SF-268
RXF 393 = system: RXF 393
SF-295 = system: SF-295
K562 = system: K562
HL-60 = system: HL-60
DU-145 = system: DU-145
LOX IMVI = system: LOX IMVI
T47D = system: T47D
SK-MEL-2 = system: SK-MEL-2

Row | Structure (SMILES) | GI50 (HCT-116) | GI50 (TK-10) | GI50 (OVCAR-3) | GI50 (HOP-92) | GI50 (MCF7) | GI50 (NCI-H460) | GI50 (UACC-257) | GI50 (M14) | GI50 (CAKI-1) | GI50 (SK-OV-3) | GI50 (SF-268) | GI50 (RXF 393) | GI50 (SF-295) | GI50 (K562) | GI50 (HL-60) | GI50 (DU-145) | GI50 (LOX IMVI) | GI50 (T47D) | GI50 (SK-MEL-2)
1 | COc1ccc(C2=Nn3c(C)nnc3S/C2=C\c2ccc(-c3ccc([N+](=O)[O-])cc3)o2)cc1 | 11 µM (inactive) | 13.7 µM (inactive) | 10.9 µM (inactive) | 22.5 µM (inactive) | 3.18 µM (inactive) | 14.9 µM (inactive) | 17.3 µM (inactive) | 17.7 µM (inactive) | 14.5 µM (inactive) | 64.1 µM (inactive) | 12.3 µM (inactive) | 9.31 µM (inactive) | 38 µM (inactive) | 3.55 µM (inactive) | 5.12 µM (inactive) | 12.2 µM (inactive) | 6.03 µM (inactive) | 4.88 µM (inactive) | 13.3 µM (inactive)
2 | O=C1NC(Nc2cccc(Cl)c2)=N/C1=C\c1ccc(Cl)c(Cl)c1 | 3.94 µM (inactive) | 9.35 µM (inactive) | 5.14 µM (inactive) | 3.48 µM (inactive) | 3.01 µM (inactive) | 2.24 µM (inactive) | 8.07 µM (inactive) | 4.42 µM (inactive) | 4.6 µM (inactive) | 12.4 µM (inactive) | 4.94 µM (inactive) | 3.21 µM (inactive) | 4.05 µM (inactive) | 3.33 µM (inactive) | 1.95 µM (inactive) | 7.52 µM (inactive) | 2.14 µM (inactive) | 3.52 µM (inactive) | 2.44 µM (inactive)
3 | O=C(c1ccccc1)c1ccc2nc3n(c2c1)C(c1c(Cl)cccc1Cl)SC3 (configuration not stated) | 3.26 µM (inactive) | 25.2 µM (inactive) | 4.68 µM (inactive) | 5.08 µM (inactive) | 4.09 µM (inactive) | 3.66 µM (inactive) | 13.6 µM (inactive) | 3.3 µM (inactive) | 3.44 µM (inactive) | 4.31 µM (inactive) | 4.79 µM (inactive) | 5.94 µM (inactive) | 3.37 µM (inactive) | 3.12 µM (inactive) | 2.36 µM (inactive) | 13.5 µM (inactive) | 3.85 µM (inactive) | 3.08 µM (inactive) | 8.02 µM (inactive)
4 | CC(C)=CCN1CC(C)C(=O)Nc2ccccc21 (configuration not stated) | > 100 µM (inactive) | > 100 µM (inactive) | > 100 µM (inactive) | 49 µM (inactive) | 61.4 µM (inactive) | 93.3 µM (inactive) | 44.7 µM (inactive) | > 100 µM (inactive) | > 100 µM (inactive) | > 100 µM (inactive) | > 100 µM (inactive) | > 100 µM (inactive) | > 100 µM (inactive) | > 100 µM (inactive) | > 100 µM (inactive) | > 100 µM (inactive) | > 100 µM (inactive) | > 100 µM (inactive) | > 100 µM (inactive)
5 | O=C1/C(=N\NC(=S)Nc2ccc(Cl)cc2)c2cc([N+](=O)[O-])ccc2N1CN1CCOCC1 | 4.12 µM (inactive) | 12.2 µM (inactive) | 3.99 µM (inactive) | 8.47 µM (inactive) | 5.24 µM (inactive) | 7.78 µM (inactive) | 13.2 µM (inactive) | 10.1 µM (inactive) | 3.52 µM (inactive) | 12.6 µM (inactive) | 4.39 µM (inactive) | 7.19 µM (inactive) | 4.97 µM (inactive) |  | 0.502 µM (active) | 10.5 µM (inactive) | 10.1 µM (inactive) | 4.37 µM (inactive) | 13.2 µM (inactive)
6 | COC(=O)C(=O)C(C(=O)C(=O)Nc1ccc([N+](=O)[O-])cc1[N+](=O)[O-])c1nc2ccc(Cl)cc2nc1O (configuration not stated) | > 100 µM (inactive) |  | > 100 µM (inactive) | > 100 µM (inactive) | > 100 µM (inactive) | > 100 µM (inactive) | > 100 µM (inactive) | > 100 µM (inactive) | 17.5 µM (inactive) | > 100 µM (inactive) | 74.1 µM (inactive) | 65.3 µM (inactive) | > 100 µM (inactive) | > 100 µM (inactive) | > 100 µM (inactive) | > 100 µM (inactive) | > 100 µM (inactive) | > 100 µM (inactive) | > 100 µM (inactive)
